Assays:
[1] = SBAD testing of a control group of SBAD trained animals given CNO, to rule out off-target effects of CNO; format: in vivo, mice; details: control group of three SBAD trained animals; CNO IP 5 mg/kg one hour before SBAD testing
Procedure: (§1) Using a shuttle box divided into two compartments, mice were trained to cross from side to side with sound cues in the “Go” trials and remain still in the absence of sound in the “No-Go” trials for 15 days. […] The sound cues were randomly played as white noise or narrow-band noise at 5, 10, 16, 20, and 32 kHz with sound intensities randomly at 75, 80, or 85 dB. […] Additionally, a hurdle was added on training 11 to reinforce the training. After the 15th training day, mice were tested for 3 days to obtain a baseline score to be compared after noise exposure, as well as retraining for 3 days.
A chemogenetic-based model was established by using DREADDs to target excitatory neurons of the IC to establish a more reliable and efficient tinnitus model in mice. Stereotaxic microinjections of excitatory DREADDs [AAV8-CaMKIIa-HM3D-mCherry] were performed in these C57BL/6J mice, similar to previous studies (Saloman et al., 2016; Smith et al. 2016; Horii-Hayashi & Nishi 2021). Coordinates for microinjections were based on the atlas of Paxinos and Watson (2006) (AP: −5.00 mm, ML: +/−1.00 mm, DV: −1.50 mm). Mice were anesthetized with 5% isoflurane and placed in a stereotaxic head frame. During surgery mice were maintained at a 1.5-2% isoflurane level. Hair was removed and a vertical incision was made to expose the skull. The skull was leveled between bregma and lambda. […]

[2] = system: excitatory neurons of the IC; assay: Sound-based avoidance detection (SBAD) testing in the chemogenetic model of tinnitus (excitatory DREADD injected into the IC, activated by CNO); format: in vivo, C57BL/6J mice
Procedure: as §1
Following the successful completion of training so that mice reached a high percentage of success in the trials, the mice were exposed to a noise-induced trauma for tinnitus. To ensure that the mice still have their hearing, one ear was protected with an ear plug, while the other ear was exposed to the noise. The mice were placed in a sound booth where they were exposed to 120 dB broadband noise at 4-25 kHz for 2-4 hours. Following the noise exposure, the mice were housed for one month, and then tested to see if they have developed tinnitus. In these testing periods, the mice were tested for three days in the shuttle boxes, where they underwent the Go and No-Go trials, however in the No-Go trials the mice were not shocked, as it is expected that mice with tinnitus would cross compartments in the absence of a sound cue. The mice were continued to be shocked in the Go trials in order to ensure that they have retained their hearing and can hear the sound cues. […] To insure there is a significant difference in the No-Go trial scores, chi-square tests were completed comparing the post-noise exposure tests to the baseline tests. However, if tinnitus is not present in the mice, tests were done after waiting one more month, and another if needed.
A chemogenetic-based model was established by using DREADDs to target excitatory neurons of the IC to establish a more reliable and efficient tinnitus model in mice. […]

**Q.** With `C[N+]1([O-])CCN(C2=Nc3cc(Cl)ccc3Nc3ccccc32)CC1` [CNO, Clozapine-N-oxide] as the molecule, how does the “Go and No-Go scores post-CNO injections (behavioral side effects of CNO)” value [1] read?
**A.** remained stable

**Q.** And the “number of animals tested positive for tinnitus” value ([2]; of eight animals, one hour after IP injection of CNO, chi-squared, p<0.03)?
**A.** seven

**Q.** And the “animals tested positive for tinnitus (share of animals)” value ([2]; one hour after IP injection of CNO, eight mice with 50 or 150 nL AAV8-CaMKIIa-HM3D-mCherry bilaterally in the IC, chi-squared, p<0.03)?
**A.** 87%

**Q.** What about the “SBAD No-Go scores post-CNO injections compared to baseline and saline injections” value ([2]; post-hoc t-tests (Bonferoni adjusted), p<.001, mice with AAV8-CaMKIIa-HM3D-mCherry in the IC) of the same molecule?
**A.** significantly reduced

From patent US20260241036A1, “CHEMOGENETICS-BASED THERAPY FOR NEUROLOGICAL DISORDERS” (GATEWAY BIOTECHNOLOGY, INC., priority 2023, published 2026)
